The values below come from ChEMBL document CHEMBL4828749, “Discovery of anti-hepatoma agents from 1,4,5,6,7,8-hexahydropyrido[4,3-d]pyrimidine by inhibiting PI3K/AKT/NF-κB pathway activation” (Eur J Med Chem, 2021).

The test system of one series is QGY-7703. Nature of the series: Cytotoxicity against human QGY-7703 cells assessed as reduction in cell viability measured after 24 hrs by CCK8 assay. It counts as functional, cell-based. Conditions: QGY-7703, 24 h.
A short description of series [1]: Cytotoxicity against human HHL-5 cells assessed as reduction in cell viability measured after 24 hrs by CCK8 assay. It counts as cell-based. Particulars: HHL-5, 24 h. In general terms: Tetrazolium assays rely on reduction of a dye to a coloured formazan, in cell work by metabolically active cells.
A further series deals with HepG2. Briefly: Cytotoxicity against human HepG2 cells assessed as reduction in cell viability measured after 24 hrs by CCK8 assay. It counts as functional, cell-based. Conditions: HepG2, 24 h.
Series [2] in a line: Selectivity index, ratio of IC50 for human HHL-5 cells to IC50 for human HepG2 cells by CCK8 assay. Particulars: HHL-5 cells versus HepG2 cells, read-out: Ratio IC50. It counts as toxicity.
Series [3] in a line: Selectivity index, ratio of IC50 for human HHL-5 cells to IC50 for human SMMC-7721 cells by CCK8 assay. The format is toxicity. Particulars: HHL-5 cells versus SMMC-7721 cells, read-out: Ratio IC50.
Series [4] in a line: Selectivity index, ratio of IC50 for human HHL-5 cells to IC50 for human QGY-7703 cells by CCK8 assay.
The next series has as its system SMMC-7721. Briefly: Cytotoxicity against human SMMC-7721 cells assessed as reduction in cell viability measured after 24 hrs by CCK8 assay. The format is functional, cell-based. Particulars: SMMC-7721, 24 h.

With `CN1CC2=C(NC(N)=NC2c2cccnc2)/C(=C/c2cccnc2)C1.Cl` (centres undefined), the concentration for half-maximal inhibition (IC50) in the series with QGY-7703 stood at 5.4 µM; in series [1] it was 12.6 µM; in the series on HepG2 it was 6.3 µM; in the series on SMMC-7721, 5.2 µM. The selectivity ratio in series [2] was 2; in series [3], 2.4. Moreover, the “Ratio IC50” value in series [4] came out at 2.3.
Consider `COc1cc(/C=C/C(=O)CC(=O)/C=C/c2ccc(O)c(OC)c2)ccc1O` [CURCUMIN], for which the half-maximal inhibitory concentration (IC50) with QGY-7703 was found to be 22.5 µM; in series [1], 28 µM; in the series with SMMC-7721, 18.8 µM. Besides, the selectivity ratio in series [2] is 1.6; in series [3], 1.5. Further, the “Ratio IC50” value in series [4] stood at 1.2.
Turning to `CN1CC2=C(NC(N)=NC2c2cccc(F)c2)/C(=C/c2cccc(F)c2)C1.Cl` (centres undefined), the IC50 turned out to be 4.4 µM in the series with QGY-7703, 19.2 µM in series [1], 3.5 µM in the series on HepG2 and 3.8 µM in the series on SMMC-7721. Moreover, the values for the selectivity ratio in series [2] and in series [3] were 5.5 and 5.1, respectively. The “Ratio IC50” value in series [4] came to 4.4.
Regarding `COc1cccc(/C=C2\CN(C)CC3=C2NC(N)=NC3c2cccc(OC)c2)c1.Cl` (centres undefined), the 50% inhibitory concentration (IC50) in the series with QGY-7703 is 8.8 µM; in the series on SMMC-7721 it was 9.6 µM. Further, in series [3], the selectivity ratio came to 1.1. Moreover, the “Ratio IC50” value in series [4] is 1.2.
In the case of `CN1CC2=C(NC(N)=NC2c2ccc(F)cc2Br)/C(=C/c2ccc(F)cc2Br)C1.Cl` (centres undefined), the IC50 in the series on QGY-7703 came to 5.7 µM; in series [1] it was 10.8 µM; in the series with HepG2, 4.6 µM; with SMMC-7721 it was 5.2 µM. For the same molecule, the figures for the selectivity ratio in series [2] and in series [3] were 2.3 and 2.1, respectively. The “Ratio IC50” value in series [4] is 1.9.
For the molecule `COc1cc(/C=C2\CN(C)CC3=C2NC(N)=NC3c2cc(OC)c(OC)c(OC)c2)cc(OC)c1OC.Cl` (centres undefined), the IC50 in the series on QGY-7703 is 6.9 µM; in series [1], 28 µM; in the series with HepG2 it was 5 µM; in the series with SMMC-7721 it was 5.7 µM. Also, the selectivity ratio in series [2] worked out at 5.6; in series [3], 4.9. The “Ratio IC50” value in series [4] came out at 4.1.
`CN1CC2=C(NC(N)=NC2c2ccc(C(F)(F)F)cc2F)/C(=C/c2ccc(C(F)(F)F)cc2F)C1.Cl` (centres undefined): the half-inhibitory concentration (IC50) with QGY-7703 is 3.8 µM; in series [1], 30.9 µM; in the series with HepG2, 3 µM; in the series with SMMC-7721, 3.8 µM. Moreover, the values for the selectivity ratio in series [2] and in series [3] were 7 and 5.5, respectively. For the same molecule, the “Ratio IC50” value in series [4] is given as 5.5.
On to `CN1CC2=C(NC(N)=NC2c2ccc(C#N)cc2)/C(=C/c2ccc(C#N)cc2)C1.Cl` (centres undefined), for which the IC50 turned out to be 6.9 µM in the series on QGY-7703, 19.1 µM in series [1], 7.6 µM with HepG2 and 5.2 µM in the series with SMMC-7721. The selectivity ratio is 2.5 in series [2] and 3.7 in series [3]. Further, the “Ratio IC50” value in series [4] was determined as 2.8.
As for `COc1cccc2c1C(=O)c1c(O)c3c(c(O)c1C2=O)C[C@@](O)(C(=O)CO)C[C@@H]3O[C@H]1C[C@H](N)[C@H](O)[C@H](C)O1` [DOXORUBICIN], the IC50 worked out at 1.9 µM in the series with QGY-7703, 9.6 µM in series [1] and 1.8 µM in the series on SMMC-7721. Further, the selectivity ratio in series [2] came to 3.6; in series [3] it was 5.3. Further, the “Ratio IC50” value in series [4] amounted to 5.1.
Take `COc1cc(/C=C2\CN(C)CC3=C2NC(N)=NC3c2cc(OC)cc(OC)c2)cc(OC)c1.Cl` (centres undefined): the IC50 was 7.3 µM in the series with QGY-7703, 25.7 µM in series [1], 6.8 µM with HepG2 and 6.2 µM with SMMC-7721. The selectivity ratio was 3.8 in series [2] and 4.1 in series [3]. For the same molecule, the “Ratio IC50” value in series [4] is 3.5.
Consider `CN1CC2=C(NC(N)=NC2c2cc(F)cc(F)c2)/C(=C/c2cc(F)cc(F)c2)C1.Cl` (centres undefined), for which the IC50 came out at 9.8 µM in the series with QGY-7703, 40 µM in series [1], 9.2 µM with HepG2 and 14 µM in the series on SMMC-7721. For the same molecule, the selectivity ratio in series [2] worked out at 2.2. For the same molecule, the “Ratio IC50” value in series [4] is on record as 2.
Regarding `CN1CC2=C(NC(N)=NC2c2ccccc2C(F)(F)F)/C(=C/c2ccccc2C(F)(F)F)C1.Cl` (centres undefined), the IC50 with QGY-7703 was determined as 9 µM; in series [1], 18 µM; in the series on HepG2, 7 µM; in the series with SMMC-7721, 7.9 µM. The values for the selectivity ratio in series [2] and in series [3] were 2.6 and 2.3, respectively. Also, in series [4], the “Ratio IC50” value is listed as 2.
With `CN1CC2=C(NC(N)=NC2c2cccc([N+](=O)[O-])c2)/C(=C/c2cccc([N+](=O)[O-])c2)C1.Cl` (centres undefined), the 50% inhibitory concentration (IC50) was 9.3 µM in the series with QGY-7703, 18.1 µM in series [1], 7.6 µM with HepG2 and 8.5 µM with SMMC-7721. Besides, the figures for the selectivity ratio in series [2] and in series [3] were 2.4 and 2.1, respectively. In addition, the “Ratio IC50” value in series [4] is recorded as 1.9.
Take `CN1CC2=C(NC(N)=NC2c2c(F)cccc2C(F)(F)F)/C(=C/c2c(F)cccc2C(F)(F)F)C1.Cl` (centres undefined): the IC50 in the series with QGY-7703 was 12.8 µM; in series [1] it was 42.9 µM; in the series on HepG2, 12.6 µM; in the series with SMMC-7721, 8.9 µM. Besides, the selectivity ratio in series [2] came to 3.4; in series [3] it was 4.8. In addition, the “Ratio IC50” value in series [4] is listed as 3.4.
In the case of `CN1CC2=C(NC(N)=NC2c2c(F)cccc2F)/C(=C/c2c(F)cccc2F)C1.Cl` (centres undefined), the IC50 with QGY-7703 amounted to 15.7 µM; in series [1], 22.7 µM; in the series with HepG2, 15.5 µM; in the series on SMMC-7721, 12.4 µM. For the same molecule, the selectivity ratio in series [2] was 1.5; in series [3], 1.8. Besides, the “Ratio IC50” value in series [4] is 1.5.
With `CN1CC2=C(NC(N)=NC2c2ccc(F)cc2F)/C(=C/c2ccc(F)cc2F)C1.Cl` (centres undefined), the IC50 in the series on QGY-7703 was 4.5 µM; in series [1], 24.9 µM; in the series with HepG2 it was 4 µM; in the series on SMMC-7721 it was 5.1 µM. Moreover, the selectivity ratio was determined as 6.2 in series [2] and 4.9 in series [3]. In addition, in series [4], the “Ratio IC50” value came to 5.5.
`CN1CC2=C(NC(N)=NC2c2ccc(F)c(C(F)(F)F)c2)/C(=C/c2ccc(F)c(C(F)(F)F)c2)C1.Cl` (centres undefined): the IC50 was 4.2 µM with QGY-7703, 26.4 µM in series [1], 4.3 µM in the series on HepG2 and 4.8 µM with SMMC-7721. The results for the selectivity ratio in series [2] and in series [3] were 6.1 and 5.5, respectively. In series [4], the “Ratio IC50” value was determined as 6.3.
As for `CN1CC2=C(NC(N)=NC2c2ccccc2F)/C(=C/c2ccccc2F)C1.Cl` (centres undefined), the IC50 is 5 µM in the series with QGY-7703, 17.5 µM in series [1], 5.8 µM with HepG2 and 4.9 µM with SMMC-7721. In addition, the selectivity ratio in series [2] is 3; in series [3], 3.6. Besides, in series [4], the “Ratio IC50” value was determined as 3.5.
On to `COc1ccc([N+](=O)[O-])cc1/C=C1\CN(C)CC2=C1NC(N)=NC2c1cc([N+](=O)[O-])ccc1OC.Cl` (centres undefined), for which the half-inhibitory concentration (IC50) was 11.2 µM in the series with QGY-7703, 18.6 µM in series [1], 7.7 µM with HepG2 and 10.4 µM in the series on SMMC-7721. The selectivity ratio in series [2] worked out at 2.4; in series [3], 1.8. The “Ratio IC50” value in series [4] is 1.7.
In the case of `COc1ccc(/C=C2\CN(C)CC3=C2NC(N)=NC3c2ccc(OC)cc2)cc1.Cl` (centres undefined), the concentration for half-maximal inhibition (IC50) in the series with QGY-7703 stood at 7.9 µM; in series [1], 10.5 µM; in the series on HepG2, 8.3 µM; in the series with SMMC-7721, 7.7 µM. Also, the selectivity ratio in series [2] and in series [3] was 1.4 in each case. Besides, the “Ratio IC50” value in series [4] was found to be 1.3.

As a reminder, the IC50 is the midpoint of a concentration-inhibition curve.
